Laboratory results as given in patent publication US7635714B2, “Methods of treating dyschezia” (priority 2002, dated 2009).

Experiments:
normal dogs (beagle) = experiment: Acceleratory effect on defecation in normal dogs (time until the first defecation); type: in vivo, dog
Experimental: In addition to the studies in rabbits, the acceleratory effect of GM-611 on defecation was also studied in normal dogs. Five beagle dogs were each catheterized to insert an intragastric catheter (Chugai Pharmaceutical Co., Ltd., 8.3-9.9 kg, 2 males and 3 females). Each dog was fed with pellets (CD-5 (CLEA Japan, Inc.), about 250 g) at 9:00 a.m. and then monitored for its defecation immediately after feeding. One hour after feeding, the animals […] defecation within 1 hour were intragastrically administered via the catheter with vehicle (3 w/v % gum arabic suspension) or GM-611 (0.3 mg/kg, 1 mg/kg, 3 mg/kg) and then measured for the time until the first defecation after administration.

[1] = system: rabbits with morphine-induced defecation dysfunction; experiment: Improving effect on morphine-induced defecation dysfunction in rabbits (stool weight); type: in vivo, rabbit; conditions: morphine 1 mg/kg s.c.
Experimental: Effects on defecation dysfunction can be studied using an animal model with morphine-induced defecation dysfunction. To study the effect of GM-611 on defecation dysfunction, rabbits were subcutaneously administered with morphine (Anpec (trade name), Dainippon Pharmaceutical Co., Ltd.) to induce defecation dysfunction and then the stool weight was measured to evaluate the acceleratory effect of GM-611 on defecation in the model. Rabbits (Kbl:JW) were subcutaneously administered with vehicle (physiological saline) or morphine (1 mg/kg) and fed for 30 minutes (feeding stimulation), followed by oral administration of vehicle (3 w/v % gum arabic suspension) or GM-611 at a dose of 1.25 mg/kg, 2.5 mg/kg, 5 mg/kg, 10 mg/kg or 20 mg/kg. The stool weight for 2.5 hours after administration was measured (11 rabbits in each group) to examine the improving effect of GM-611 on morphine-induced defecation dysfunction.

normal rabbits (Kbl:JW) = experiment: Acceleratory effects on defecation in normal rabbits (stool weight, water content of stools); type: in vivo, rabbit
Text: To study the difference of effects between GM-611 and a laxative, sennoside (sennoside solution (trade name), Taisho Pharm. Ind., Ltd.) was used as a laxative to compare with acceleratory effects of GM-611 on defecation. More specifically, normal rabbits were orally administered with GM-611 or sennoside and then measured for the weight and water content of stools. Normal rabbits (Kbl:JW), in groups of 13 to 15, were orally administered with vehicle (3 w/v % gum arabic suspension), GM-611 (1.25 mg/kg, 2.5 mg/kg, 5 mg/kg, 10 mg/kg), vehicle (purified water), or sennoside (12 mg/kg, 24 mg/kg, 48 mg/kg). The stool weight was then measured every 4 hours until 8 hours after administration. Also, their stools were collected, dried in a dry oven (at 120° C. for 24 hours or longer) and then the dry stool weight was measured to calculate the water content of stools (%) according to the following formula: ((wet stool weight [g]−dry stool weight [g]))/wet stool weight [g])×100.

[2] = compared with erythromycin; cited from earlier work
healthy male volunteers = experiment: Acceleratory effect on defecation in healthy volunteers (Phase I, repeated oral administration); type: in vivo, human
Experimental: The acceleratory effect of GM-611 on defecation was studied by repeated oral administration of GM-611 in Phase I trials. Healthy male volunteers, in groups of 6, were orally administered for 10 days with placebo or GM-611 (5 mg, 10 mg, 20 mg) on a three-times-a-day basis together with 150 mL water at 30 minutes before each meal, provided that the volunteers were administered once before breakfast on the first and tenth days. The volunteers were then monitored for their defecation during the period of administration. The acceleratory effect on defecation was assessed by the daily frequency of defecation, the number of days that at least one defecation was observed (the number of defecation days), and stool condition (watery diarrhea, muddy diarrhea, muddy soft stool, formed soft stool, normal stool, hard stool, very hard stool). It should be noted that in this test, the subjects were allocated at random to each test group and tested in a double-blind manner.

CC[C@H]1OC(=O)[C@H](C)[C@@H](O[C@H]2C[C@@](C)(OC)[C@@H](O)[C@H](C)O2)[C@H](C)[C@@H](O[C@@H]2O[C@H](C)C[C@H](N(C)C(C)C)[C@H]2O)[C@@]2(C)CC(C)=C(O2)[C@H](C)C(=O)[C@]1(C)OC.CC[C@H]1OC(=O)[C@H](C)[C@@H](O[C@H]2C[C@@](C)(OC)[C@@H](O)[C@H](C)O2)[C@H](C)[C@@H](O[C@@H]2O[C@H](C)C[C@H](N(C)C(C)C)[C@H]2O)[C@@]2(C)CC(C)=C(O2)[C@H](C)C(=O)[C@]1(C)OC.O=C(O)/C=C/C(=O)O [GM-611, erythromycin, 8,9-didehydro-N-demethyl-9-deoxo-6,11-dideoxy-6,9-epoxy-12-O-methyl N-(1-methylethyl)-11-oxo-, (2E)-2-butenedioate (2:1)]
stool condition (normal dogs (beagle); at first defecation after administration): not diarrhea | time until the first defecation after administration (normal dogs (beagle); intragastric 0.3, 1, 3 mg/kg, 1 hour after feeding): dose-dependently decreased | stool weight at the maximum dose ([1]; GM-611 20 mg/kg oral, 2.5 hours): reached the same level as observed in the morphine-untreated group | morphine-induced defecation dysfunction (stool weight for 2.5 hours after administration) ([1]; feeding stimulation, oral GM-611 1.25-20 mg/kg): dose-dependently improved | water content of stool (normal rabbits (Kbl:JW); oral 1.25-10 mg/kg GM-611): no change | stool weight (normal rabbits (Kbl:JW); oral 1.25-10 mg/kg, 0 to 4 hours after administration, vs vehicle): dose-dependently increased | antibacterial action [2]: weaker antibacterial action than erythromycin | average number of defecation days (healthy male volunteers; healthy male volunteers, 5, 10, 20 mg three times a day oral for 10 days, averaged over all GM-611 groups, placebo 6.0): 8.2 | average daily frequency of defecation (healthy male volunteers; healthy male volunteers, 5, 10, 20 mg three times a day oral for 10 days, placebo 0.7): 1.0 | stool condition (healthy male volunteers; healthy male volunteers, GM-611-treated groups vs placebo-treated group): no change

CN1CC[C@]23c4c5ccc(O)c4O[C@H]2[C@@H](O)C=C[C@H]3[C@H]1C5 [morphine, reference compound]
defecation enhanced by feeding stimulation (stool weight) ([1]; vs physiological saline): significantly inhibited

sennoside [reference compound]
water content of stools (normal rabbits (Kbl:JW); oral sennoside 12-48 mg/kg): increased dose-dependently | stool weight (normal rabbits (Kbl:JW); oral sennoside 12-48 mg/kg, significant during 4 to 8 hours after administration (delayed)): dose-dependently increased
